Test results as given in patent US9989535B2, “Methods and reagents for analyzing protein-protein interfaces” (Warp Drive Bio, Inc., priority 2015, dated 2018).

How the values were obtained:
Format in all cases: binding
[1] = molecular target: T1, KRASGTP/S39C lite (Homo sapiens, UniProt P01116, C118S/C51S/C80L/G12V/S39C); assay: Formation of KRASGTP/S39C lite/C2-FK506 conjugates, SDS-PAGE
T1 construct: residues 1-169 containing G12V/S39C/C51S/C80L/C118S; made in house
Description: (§1) Experimental Protocol: A 1:2 molar ratio of target protein and compound are mixed together in 12.5 mM HEPES pH 7.4, 75 mM NaCl buffer containing 2% DMSO. The reaction is incubated at 37° C. for 30 min, followed by overnight incubation at room temperature. Cross-linking efficiency is assessed by SDS-PAGE gel. Conjugates migrate slower than non-cross-linked target protein. For thiol reactive compounds, the Cys specific attachment of the compound to the target protein can be further confirmed by SDS-PAGE after the addition of 100 mM DTT to the reaction mixture, which reduces the conjugate back into its components.
Experimental Protocol: A 1:2 molar ratio of KRASGTP/S39C lite and C2-FK506 are mixed together in 12.5 mM HEPES pH 7.4, 75 mM NaCl buffer containing 2% DMSO. The reaction is incubated at 37° C. for 30 min, followed by overnight incubation at room temperature. Cross-linking efficiency is assessed by SDS-PAGE gel. Attachment of C2-FK506 to Cysteine 39 on KRASGTP/S39C lite is also assessed by incubation of the reaction mixture with 100 mM DTT.

[2] = molecular target: T2, KRASGTP/G12C lite (Homo sapiens, UniProt P01116, C118S/C51S/C80L/G12C); assay: Formation of KRASGTP/G12C lite/SFAX9DS conjugates, SDS-PAGE; conditions: 1:2 protein:compound
T2 construct: residues 1-169 containing G12C/C51S/C80L/C118S; made in house
Description: as §1
(§2) Experimental Protocol: A 1:2 molar ratio of KRASGTP/G12C lite and SFAX9DS are mixed together in 12.5 mM HEPES pH 7.4, 75 mM NaCl buffer containing 2% DMSO. The reaction is incubated at 37° C. for 30 min, followed by overnight incubation at room temperature. Cross-linking efficiency is assessed by SDS-PAGE gel. Wild-type CypA also cross-linked with the compound. Cysteine 52 as a reactive Cysteine on CypA and was mutated to Serine to abrogate presenter cross-linking.

[3] = molecular target: T3, CypAC52S (Homo sapiens, UniProt P62937, C52S); assay: Presenter cross-linking with SFAX9DS, SDS-PAGE
T3 construct: made in house
Description: as §2

[4] = molecular target: T4, KRASGTP/S39C lite/FKBP12 (Homo sapiens, UniProt P01116+P62942, C118S/C51S/C80L/G12V/S39C); assay: Ternary complex formation by SEC and SDS-PAGE; conditions: SEC profile and SDS-PAGE of elution peaks
T4 construct: residues 1-169 containing G12V/S39C/C51S/C80L/C118S; made in house
Description: (§3) A 1:2:2 molar ratio of compound, presenter protein, and target protein are mixed together in 12.5 mM HEPES pH 7.4, 75 mM NaCl buffer containing 2% DMSO. The reaction is incubated at 37° C. for 30 min, followed by overnight incubation at room temperature. Pure complex is isolated by Size Exclusion Chromatography (SEC) purification. The reaction mixture is directly injected on a Superdex 75 column (CV 120 mL) pre-equilibrated with buffer containing 12.5 mM HEPES pH 7.4, 75 mM NaCl. Complex elutes at a higher molecular weight than unreacted target protein and presenter protein. To confirm presence of complex in the elution peak, samples are assessed by SDS-PAGE.
(§4) The reaction is incubated at 37° C. for 30 min, followed by overnight incubation at room temperature. Pure complex is isolated by Size Exclusion Chromatography (SEC) purification. The reaction mixture is directly injected on a Superdex 75 column (CV 120 mL) pre-equilibrated with buffer containing 12.5 mM HEPES pH 7.4, 75 mM NaCl. Complex elutes at around 69 mL post injection and unreacted KRASGTP/S39C lite and FKBP12 elutes at around 75 mL and 87 mL post injection respectively. To confirm the presence of KRASGTP/S39C lite and FKBP12 in the elution peak, samples are also assessed by SDS-PAGE.

[5] = molecular target: T5, KRASGDP/S39C lite/CypAC52S (Homo sapiens, UniProt P01116+P62937, C118S/C51S/C52S/C80L/G12V/S39C); assay: Ternary complex formation by SEC and SDS-PAGE; conditions: SEC profile and SDS-PAGE of elution peaks
T5 construct: residues 1-169 containing G12V/S39C/C51S/C80L/C118S; made in house
Description: as §3
as §4, with “KRASGDP/S39C” for “KRASGTP/S39C”, “CypAC52S” for “FKBP12”, “80” for “87”

[6] = molecular target: T6, KRASGTP/G12C (Homo sapiens, UniProt P01116+P62942, G12C); assay: Cross-linking gel shift assay (12% SDS-PAGE), with or without FKBP12; conditions: 60 μM KRAS, 180 μM FKBP12, 180 μM ligand, quenched by MMTS
T6 construct: KRASGTP/G12C (in-house, residues 1-169); made in house
Description: In parallel to mass spectrometry analysis, cross-linking reactions with C3- or C4-SLF were subjected to gel shift assay using 12% SDS-PAGE in the presence or absence of FKBP12 at the same experimental condition described above except that cross-linking reactions were set up at higher concentrations (60 μM KRAS, 180 μM FKBP12, and 180 μM C3- or C4-SLF) and they were quenched by MMTS to terminate the reaction.

[7] = molecular target: T6, KRASGTP/G12C; assay: Disulfide cross-linking efficiency by mass spectrometry, with or without FKBP12; conditions: 2 μM KRAS, 10 μM ligand, 4 hours RT, MS
Description: Experimental protocol: In order to follow the kinetics of disulfide crosslinking reactions, Agilent 6230 TOF-LC/MS and Agilent 1260 HPLC instruments employing a AdvanceBio RP-mAb C4 column (2.1×100 mm, 3.5 μm) and equipped with an auto-sampler were used. HPLC grade acetonitrile and water (each containing 1.0 mM ammonium formate and 1% formic acid by volume) were used as mobile phase with the following ramp: 0.6 ml/min flow rate, water:acetonitrile=95:5 from 0.0 to 13.0 min ramping to water:acetonitrile=5:95 from 13.0 to 17.0 min. Total time=17.0 min.
All crosslinking reactions were performed in 1.5 mL amber colored glass vials equipped with 0.5 mL glass inserts. A water-soluble peptide (SEQ ID NO: 1: […]) was employed as an internal standard. Although the actual sequence of the internal standard is inconsequential, choice of amino acid residues were critical to avoid interference in the crosslinking assays. […] All reactions and standard solutions were prepared in HEPES (pH 7.4, 1.0 mM MgCl2) buffer.
Prior to every reaction, a standard curve was obtained for the individual components using a series of standard solutions (an example of standard curve analysis for FKBP12 is shown in Table 3 below). Using the data from standard curve, μmol of protein samples were plotted against the ratio of areas (sample:std) and a linear fit (y=mx+c) was employed to obtain the slope and intercept. The value of slope and intercept involved in these standard curves were accounted for during evaluation of the substrate and product concentration before and during the course of the reaction. For every substrate/product, an initial injection was followed up by a blank injection to verify presence of any residual protein/reagents. Based on this analysis the sequence of auto-sampler can be adjusted to included appropriate number of blank injections for removal of residual components, if any. The MS spectra were analyzed using Agilent MassHunter v B.07.0 software.
In a representative experiment to assess the presenter dependency of ligand cross-linking on the target protein, KRASGTP/G12C and either C3- or C4-SLF ligand were incubated in the presence or absence of FKBP12 at concentrations of 2 μM KRAS, 10 μM FKBP12, 10 μM C3- or C4-SLF for 4 hours at room temperature in 12.5 mM HEPES pH 7.4, 75 mM NaCl, 1 mM MgCl2, 3% DMSO. Analysis of the amount of KRAS undergoing disulfide cross-linking with the ligand using the method above.

T3 sequence (P62937 whole entry C52S): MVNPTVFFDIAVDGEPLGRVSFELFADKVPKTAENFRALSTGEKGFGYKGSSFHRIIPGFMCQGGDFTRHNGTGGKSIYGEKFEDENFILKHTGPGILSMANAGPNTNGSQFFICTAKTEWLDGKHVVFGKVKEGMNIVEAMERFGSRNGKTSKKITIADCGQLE

CO[C@H]1C[C@@H](C)C/C(C)=C/[C@@H](CCCC(=O)NCCSSc2ccccn2)C(=O)C[C@H](O)[C@@H](C)[C@@H](/C(C)=C/[C@@H]2CC[C@@H](O)[C@H](OC)C2)OC(=O)[C@@H]2CCCCN2C(=O)C(=O)[C@]2(O)O[C@H]1[C@@H](OC)C[C@H]2C [Compound C2-FK506]
Cross-linking efficiency with KRASGTP/S39C lite ([1]; 1:2 protein:compound, 37° C. 30 min then overnight RT): cross-links efficiently
Site specificity of attachment ([1]; reaction mixture + 100 mM DTT): specific for Cysteine 39

COC(=O)[C@@H]1CCCN(C(=O)[C@H](Cc2cccc(O)c2)NC(=O)[C@@H](NC(=O)CCOCCOCCSSc2ccccn2)C(C)C)N1 [SFAX9DS]
Cross-linking efficiency with KRASGTP/G12C lite [2]: cross-links efficiently
Cross-linking of presenter CypAC52S to compound [3]: does not cross-link

CCC(C)(C)C(=O)C(=O)N1CCCC[C@H]1C(=O)OCCCC(=O)NCCSSc1ccccn1 [Compound C2-Holt]
Formation of KRASGTP/S39C lite/C2-Holt/FKBP12 complex [4]: confirm the formation

COC(=O)[C@@H]1CCCN(C(=O)[C@H](Cc2cccc(O)c2)NC(=O)[C@@H](NC(=O)CCCSSc2ccccn2)C(C)C)N1 [SFAC4DS, methyl (S)-1-((S)-3-(3-hydroxyphenyl)-2-((S)-3-methyl-2-(4-(pyridin-2-yldisulfanyl)butanamido)butanamido)propanoyl)hexahydropyridazine-3-carboxylate]
Formation of KRASGDP/S39C lite/SFAC4DS/CypAC52S complex [5]: confirm the formation

CCC(C)(C)C(=O)C(=O)N1CCCC[C@H]1C(=O)O[C@H](CCc1ccc(OC)c(OC)c1)c1cccc(NC(=O)CCCSSc2ccccn2)c1 [Compound C4-SLF, (R)-3-(3,4-dimethoxyphenyl)-1-(3-(4-(pyridin-2-yldisulfanyl)butanamido)phenyl)propyl (S)-1-(3,3-dimethyl-2-oxopentanoyl)piperidine-2-carboxylate]
Ligand cross-linking efficiency in the presence of FKBP12, gel shift [6]: boosted significantly
% × link to KRAS ([7]; FKBP12 absent (−)): 7.0%
% × link to KRAS ([7]; FKBP12 present (+) 10 μM): 69.8%
